Data reported in patent publication US20190127366A1 (LifeSci Pharmaceuticals, Inc., priority 2015, published 2019).

Each molecule was assayed on alternative pathway (AP) hemolytic activity (assay: AP hemolysis inhibition assay). Details: Erythrocyte, 1 h; Normal Human Serum, chicken or rabbit erythrocytes, 60 min at 37° C., OD 414 nm.
Format: cell-based
Protocol: The ability of the compounds disclosed herein to inhibit alternative pathway (AP) hemolytic activity was determined. Red blood cells (RBC), chicken or rabbit erythrocyctes (SbjBio), were washed three time using assay buffer containing 0.1% gelatin, 5 mM Veronal, 145 mM NaCl, 0.025% NaN3, 10 mM Mg-EGTA pH 7.3. In 100 μL reaction system, 1300 to 1500 ng/μL final concentration of Normal Human Serum (CompTech) was incubated with compound for 15 min at 37° C. Then 2×10^6 cells/well of chicken or rabbit erythrocytes in assay buffer were added and incubated for an additional 60 min at 37° C. Positive control (100% lysis) consists of serum and RBC, and negative control (0% lysis) consists of assay buffer and RBC only. Samples were centrifuged at 2000 g for 5 min, and supernatants collected. Optical density of the supernatant is monitored at 414 nm using Synergy 2 (BioTek). Percentage lysis in each sample is calculated relative to positive control (100% lysis).
Table 3 discloses the inhibitory activity of the compounds provided herein in the hemolysis assay.

SMILES	EC50 [nM]
NC(=O)c1nn(CC(=O)N2[C@@H]3CC[C@@H](C3)[C@H]2C(=O)Nc2cccc(Cl)n2)c2ccccc12 [Example 1, 1-(2-((1R,3S,4S)-3-((6-chloropyridin-2-yl)carbamoyl)-2-azabicyclo[2.2.1]heptan-2-yl)-2-oxoethyl)-1H-indazole-3-carboxamide]	100 to 1000
NC(=O)c1nn(CC(=O)N2C3CCC(C3)[C@H]2C(=O)Nc2cccc(Cl)n2)c2ccccc12 (stereo partly drawn) [Example 10, 1-(2-((3S)-3-((6-chloropyridin-2-yl)carbamoyl)-2-azabicyclo[2.2.1]heptan-2-yl)-2-oxoethyl)-1H-indazole-3-carboxamide]	100 to 1000
NC(=O)c1nn(CC(=O)N2C3CCC(C3)[C@H]2C(=O)Nc2cccc(Cl)n2)c2ccc(C3CC3)cc12 (stereo partly drawn) [Example 11, 1-(2-((3S)-3-((6-chloropyridin-2-yl)carbamoyl)-2-azabicyclo[2.2.1]heptan-2-yl)-2-oxoethyl)-5-cyclopropyl-1H-indazole-3-carboxamide]	1000 to 10000
NC(=O)c1nn(CC(=O)N2[C@@H]3CC[C@@H](C3)[C@H]2C(=O)Nc2cccc(Cl)c2F)c2ccccc12 [Example 18, 1-(2-((1R,3S,4S)-3-((3-chloro-2-fluorophenyl)carbamoyl)-2-azabicyclo[2.2.1]heptan-2-yl)-2-oxoethyl)-1H-indazole-3-carboxamide]	1000 to 10000

The molecules below were run against T1, human complement factor D (Homo sapiens, UniProt P00746) (assay: In vitro enzyme inhibition (Z-Lys-SBzl/DTNB absorbance assay)). Details: Complement Factor D (R&D Systems), substrate Z-Lys-SBzl, A405 nm; read-out: CFD IC50.
T1 construct: purchased R&D Systems 1824-SE
Format: biochemical
In short: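 Factor D (6.25 ng/μL before addition) preincubated 5 min RT with compound (8 points from 50 μM, 6-fold, 0.5% DMSO final) in 50 mM Tris/HCl pH 7.5, 1 M NaCl, then Z-Lys-SBzl/DTNB added (200 μM each before addition). A405 read kinetically every 30 s for 60 min; IC50 from variable-slope fit, controls with and without enzyme.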

T1 sequence (P00746 26-253): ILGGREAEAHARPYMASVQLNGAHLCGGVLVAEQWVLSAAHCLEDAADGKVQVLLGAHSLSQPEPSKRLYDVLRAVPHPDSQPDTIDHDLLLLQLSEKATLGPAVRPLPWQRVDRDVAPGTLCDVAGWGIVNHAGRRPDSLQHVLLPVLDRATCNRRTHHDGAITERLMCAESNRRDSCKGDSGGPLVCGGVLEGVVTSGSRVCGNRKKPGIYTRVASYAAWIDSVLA

IC50 [nM]	SMILES
100 to 1000	NC(=O)c1nn(CC(=O)N2[C@H](C(=O)Nc3cccc(Cl)n3)C[C@@H]3CCC[C@@H]32)c2cnccc12 [Example 177, 1-(2-((2S,3aS,6aS)-2-((6-chloropyridin-2-yl)carbamoyl)hexahydrocyclopenta[b]pyrrol-1(2H)-yl)-2-oxoethyl)-1H-pyrazolo[3,4-c]pyridine-3-carboxamide]
100 to 1000	CC(=O)c1nn(CC(=O)N2[C@H](C(=O)Nc3cccc(Cl)n3)C[C@@H]3CCC[C@@H]32)c2ccc(Cl)cc12 [Example 178, (2S,3aS,6aS)-1-(2-(3-acetyl-5-chloro-1H-indazol-1-yl)acetyl)-N-(6-chloropyridin-2-yl)octahydrocyclopenta[b]pyrrole-2-carboxamide]
100 to 1000	CC(=O)c1nn(CC(=O)N2[C@H](C(=O)Nc3cccc(Cl)n3)C[C@@H]3CCC[C@@H]32)c2ccccc12 [Example 180, (2S,3aS,6aS)-1-(2-(3-acetyl-1H-indazol-1-yl)acetyl)-N-(6-chloropyridin-2-yl)octahydrocyclopenta[b]pyrrole-2-carboxamide]
1000 to 10000	CC(O)c1nn(CC(=O)N2[C@H](C(=O)Nc3cccc(Cl)n3)C[C@@H]3CCC[C@@H]32)c2ccccc12 (stereo partly drawn) [Example 181, (2S,3aS,6aS)-N-(6-chloropyridin-2-yl)-1-(2-(3-(1-hydroxyethyl)-1H-indazol-1-yl)acetyl)octahydrocyclopenta[b]pyrrole-2-carboxamide]
100 to 1000	NC(=O)c1nn(CC(=O)N2[C@H](C(=O)Nc3cccc(Cl)n3)C[C@@H]3CCC[C@@H]32)c2cc(Cl)ccc12 [Example 182, 6-chloro-1-(2-((2S,3aS,6aS)-2-((6-chloropyridin-2-yl)carbamoyl)hexahydrocyclopenta[b]pyrrol-1(2H)-yl)-2-oxoethyl)-1H-indazole-3-carboxamide]
1000 to 10000	CC(=O)c1nn(CC(=O)N2[C@H](C(=O)Nc3cccc(Cl)n3)C[C@@H]3CCC[C@@H]32)c2ccc(F)cc12 [Example 183, (2S,3aS,6aS)-1-(2-(3-acetyl-5-fluoro-1H-indazol-1-yl)acetyl)-N-(6-chloropyridin-2-yl)octahydrocyclopenta[b]pyrrole-2-carboxamide]
100 to 1000	NC(=O)n1cc(CC(=O)N2CC[C@H]2C(=O)NCc2cccc(Cl)c2F)c2ccccc21 [Example 186, (S)-3-(2-(2-((3-chloro-2-fluorobenzyl)carbamoyl)azetidin-1-yl)-2-oxoethyl)-1H-indole-1-carboxamide]
1000 to 10000	NC(=O)c1nn(CC(=O)N2CC[C@H]2C(=O)NCc2cccc(Cl)c2F)cc1Br [Example 187, (S)-4-bromo-1-(2-(2-((3-chloro-2-fluorobenzyl)carbamoyl)azetidin-1-yl)-2-oxoethyl)-1H-pyrazole-3-carboxamide]
100 to 1000	NC(=O)c1nc(CC(=O)N2CC[C@H]2C(=O)NCc2cccc(Cl)c2F)n2ccccc12 [Example 191, (S)-3-(2-(2-((3-chloro-2-fluorobenzyl)carbamoyl)azetidin-1-yl)-2-oxoethyl)imidazo[1,5-a]pyridine-1-carboxamide]
1000 to 10000	CC(=O)c1nc(CC(=O)N2CC[C@H]2C(=O)NCc2cccc(Cl)c2F)n2ccccc12 [Example 192, (S)-1-(2-(1-acetylimidazo[1,5-a]pyridin-3-yl)acetyl)-N-(3-chloro-2-fluorobenzyl)azetidine-2-carboxamide]
1000 to 10000	CC(O)c1nn(CC(=O)N2CC[C@H]2C(=O)NCc2cccc(Cl)c2F)c2ccccc12 (stereo partly drawn) [Example 193, (2S)-N-(3-chloro-2-fluorobenzyl)-1-(2-(3-(1-hydroxyethyl)-1H-indazol-1-yl)acetyl)azetidine-2-carboxamide]
1000 to 10000	NC(=O)c1nn(CC(=O)N2[C@H](CO)C[C@H]2C(=O)NCc2cccc(Cl)c2F)c2ccccc12 [Example 197, 1-(2-(trans-2-((3-chloro-2-fluorobenzyl)carbamoyl)-4-(hydroxymethyl)azetidin-1-yl)-2-oxoethyl)-1H-indazole-3-carboxamide]
> 10000	NC(=O)c1nn(CC(=O)N2[C@@H]3CC[C@@H](C3)[C@H]2C(=O)NCc2cc3c(Cl)c[nH]c3cc2F)c2ccccc12 [Example 198, 1-(2-((1R,3S,4S)-3-(((3-chloro-6-fluoro-1H-indol-5-yl)methyl)carbamoyl)-2-azabicyclo[2.2.1]heptan-2-yl)-2-oxoethyl)-1H-indazole-3-carboxamide]
100 to 1000	NC(=O)c1nn(CC(=O)N2[C@H](C(=O)NCc3cccc(Cl)c3F)C[C@@H]3CCC[C@@H]32)c2ccc(C3CC3)cc12 [Example 199, 1-(2-((2S,3aS,6aS)-2-((3-chloro-2-fluorobenzyl)carbamoyl)hexahydrocyclopenta[b]pyrrol-1(2H)-yl)-2-oxoethyl)-5-cyclopropyl-1H-indazole-3-carboxamide]

Continued, molecule first:

SMILES	IC50 [nM]
NC(=O)c1nn(CC(=O)N2[C@@H]3CC[C@@H](C3)[C@H]2C(=O)Nc2cccc(Cl)n2)c2ccccc12 [Example 1, 1-(2-((1R,3S,4S)-3-((6-chloropyridin-2-yl)carbamoyl)-2-azabicyclo[2.2.1]heptan-2-yl)-2-oxoethyl)-1H-indazole-3-carboxamide]	< 100
NC(=O)c1nn(CC(=O)N2C3CCC(C3)[C@H]2C(=O)Nc2cccc(Cl)n2)c2ccccc12 (stereo partly drawn) [Example 10, 1-(2-((3S)-3-((6-chloropyridin-2-yl)carbamoyl)-2-azabicyclo[2.2.1]heptan-2-yl)-2-oxoethyl)-1H-indazole-3-carboxamide]	< 100
NC(=O)c1nn(CC(=O)N2C3CCC(C3)[C@H]2C(=O)Nc2cccc(Cl)n2)c2ccc(C3CC3)cc12 (stereo partly drawn) [Example 11, 1-(2-((3S)-3-((6-chloropyridin-2-yl)carbamoyl)-2-azabicyclo[2.2.1]heptan-2-yl)-2-oxoethyl)-5-cyclopropyl-1H-indazole-3-carboxamide]	100 to 1000
NC(=O)c1nn(CC(=O)N2[C@@H]3CC[C@@H](C3)[C@H]2C(=O)Nc2cccc(Cl)c2F)c2ccccc12 [Example 18, 1-(2-((1R,3S,4S)-3-((3-chloro-2-fluorophenyl)carbamoyl)-2-azabicyclo[2.2.1]heptan-2-yl)-2-oxoethyl)-1H-indazole-3-carboxamide]	100 to 1000
COc1ccc2c(c1)c(C(N)=O)nn2CC(=O)N1[C@H](C(=O)Nc2cccc(Cl)n2)C[C@@H]2CCC[C@@H]21 [Example 170, 1-(2-((2S,3aS,6aS)-2-((6-chloropyridin-2-yl)carbamoyl)hexahydrocyclopenta[b]pyrrol-1(2H)-yl)-2-oxoethyl)-5-methoxy-1H-indazole-3-carboxamide]	100 to 1000
NC(=O)c1nn(CC(=O)N2[C@@H](C(=O)Nc3cccc(Cl)n3)C[C@H]3CCC[C@H]32)c2ccccc12 [Example 171, 1-(2-((2R,3aR,6aR)-2-((6-chloropyridin-2-yl)carbamoyl)hexahydrocyclopenta[b]pyrrol-1(2H)-yl)-2-oxoethyl)-1H-indazole-3-carboxamide]	> 10000
NC(=O)c1nn(CC(=O)N2[C@H](C(=O)Nc3cccc(Cl)n3)C[C@@H]3CCC[C@@H]32)c2cc(F)ccc12 [Example 172, 1-(2-((2S,3aS,6aS)-2-((6-chloropyridin-2-yl)carbamoyl)hexahydrocyclopenta[b]pyrrol-1(2H)-yl)-2-oxoethyl)-6-fluoro-1H-indazole-3-carboxamide 2,2,2-trifluoroacetate]	100 to 1000
NC(=O)c1nn(CC(=O)N2[C@H](C(=O)Nc3cccc(Cl)n3)C[C@@H]3CCC[C@@H]32)c2ccc([N+](=O)[O-])cc12 [Example 173, 1-(2-((2S,3aS,6aS)-2-((6-chloropyridin-2-yl)carbamoyl)hexahydrocyclopenta[b]pyrrol-1(2H)-yl)-2-oxoethyl)-5-nitro-1H-indazole-3-carboxamide]	1000 to 10000
N#Cc1ccc2c(c1)c(C(N)=O)nn2CC(=O)N1[C@H](C(=O)Nc2cccc(Cl)n2)C[C@@H]2CCC[C@@H]21 [Example 174, 1-(2-((2S,3aS,6aS)-2-((6-chloropyridin-2-yl)carbamoyl)hexahydrocyclopenta[b]pyrrol-1(2H)-yl)-2-oxoethyl)-5-cyano-1H-indazole-3-carboxamide]	100 to 1000
COc1ccc2c(c1)c(C(C)=O)nn2CC(=O)N1[C@H](C(=O)Nc2cccc(Cl)n2)C[C@@H]2CCC[C@@H]21 [Example 175, (2S,3aS,6aS)-1-(2-(3-acetyl-5-methoxy-1H-indazol-1-yl)acetyl)-N-(6-chloropyridin-2-yl)octahydrocyclopenta[b]pyrrole-2-carboxamide]	100 to 1000
CC(=O)c1nn(CC(=O)N2[C@H](C(=O)Nc3cccc(Cl)n3)C[C@@H]3CCC[C@@H]32)c2ccc(C)cc12 [Example 176, (2S,3aS,6aS)-1-(2-(3-acetyl-5-methyl-1H-indazol-1-yl)acetyl)-N-(6-chloropyridin-2-yl)octahydrocyclopenta[b]pyrrole-2-carboxamide]	100 to 1000
